Test results from US11540515B2, “Use of dialkoxybenzenes for control of honey bee mite varroa destructor” (Simon Fraser University, priority 2018, dated 2023).
Where a name gives a salt, the structure may show the parent alone.

Experiments:
Varroa mites [1] = experiment: Evaluation of acaricidal effect: emerging bees loaded with Varroa mites in glass petri dish, compound on Parafilm; assay type: in vivo, Varroa destructor; details: for mites falling off bees: up to end of experiment; for acaricidal effect: highest amount tested (30 μl), end of 24 h
Procedure: The effect of the compounds was checked in free moving-mites freshly collected from the bottom board using fine paint brush. All collected Varroa were kept on emerging bees at room temperature until the experiment.
Compounds (code-labeled, Table 1) were prepared in hexane:ethyl acetate (1:1) in 10 mM concentration according to instructions. Dilutions only of compound “A” was prepared. […] This setup enabled the testing of all the compounds and to save the mites.
The assay was conducted in glass petri dish (90 mm diameter and 17 mm deep glass) containing moistened filter paper. Five emerging bees loaded with two Varroa mites were put into each plate. The bees were provided with candy (60% of pollen and 40% sugar). 10 μl or 30 μl volume of each compound or control mix was placed on Parafilm paper (5×5 cm) on the plates cover.

Varroa mites [2] = experiment: Example 6 behavioral dose response bio-assays of Varroa mites; assay type: in vivo; details: for mite paralysis/mortality: 1 mg
Description: Foragers were collected at the entrance of one or more honey bee hives by aspiration into a jar, when bees were flying back to the colony.
Initially, nurses were collected from an open brood frame of a honey bee hive. Bees apparently attending the brood were targeted for collection. As time passed and temperatures started to drop no open brood was observed, therefore subsequent collections targeted bees around sealed brood. At the end of the sampling period no sealed brood was present, so bees taken from the middle frame of a brood chamber were considered nurses.
Both foragers and nurses were immediately transferred to individual plastic cages (118×98×81 mm: H×W×D), fed with syrup (2:1) and kept overnight in an incubator at 30° C. and 70% RH. Next day, cages were inspected for any dead bees to be removed before freeze killing the bees on dry ice.
For Varroa mite collection, adult bees were taken from the brood chamber's central frames of a mite-infested hive using a glass jar. Bees were fed with syrup (2:1), and kept in an incubator at 30° C. and 70% RH until needed. First collections were made from frames with open and sealed brood, later only from sealed brood frames.
Mite-infested bees in the glass jar were dusted with icy sugar and shaken over a large plastic weighing boat. Dislodged Varroa were immediately transferred with a fine paint brush to a wet filter paper in a plastic petri dish to avoid desiccation. Individual mites were placed then onto the middle of a glass petri dish bottom (10 cm diameter) with a fresh freeze-killed forager or nurse bee on opposite sides of the plate. Synthesized compounds were applied onto a 1 cm^2 Parafilm square attached to the center of the petri dish cover's inner face, Hexane was used as control.
The bio-assays with a forager and a nurse bee, Varroa mite, and synthesized compounds were set in glass petri dishes placed into an incubator at 30° C. and 70% relative humidity. […] Mite paralysis and death were recorded after 3 h and 5 h.

Varroa destructor mites [3] = experiment: Example 3 paralysis assays in petri dishes (dose response, screen, blends); assay type: in vivo
Procedure: Paralysis assays. These assays were done in 10 cm glass Petri dishes. A 3×3 cm piece of Parafilm was stuck to the lid of the dish, in the middle. The Parafilm received […], either pure (controls) or with the compound (treatments). The bottom of the dish received one freshly thawed nurse and one freshly thawed forager, placed ˜3 cm from the center of the dish. One mite was placed between the nurse and the forager, the lid was closed and groups of dishes were placed in an incubator at 30° C. Humidity levels were kept at around 35-40%.
Observation times were 3 h and 5 h. Mites were scored for whether the mite could move normally, was paralyzed (had difficulty moving) or dead (not moving).
Each assay was done in 5 technical replicates, in two biological replicates. Thus, each biological replicate was scored out of 5.
(§1) Experiments were performed in the dishes: i) dose response assays with a single compound at different doses of compound on the Parafilm (1 ng, 10 ng, 100 ng, 1 μg, 10 μg, 100 μg, 1 mg and 10 mg), ii) a screen with six compounds, all at a 1 mg dose, iii) an assay with blends of compounds 3c{3,6} and 3c{6,6}, and iv) one assay without bees (only to check for mite paralysis and death), with compounds 3c{3,6} and 3c{6,6}(pure or 1:1 blend), at 0.5 and 1 mg doses.

Varroa destructor mites [4] = experiment: Example 3 mite paralysis/death in the absence of bees; assay type: in vivo; details: no bees, 4.5 h
Procedure: as §1
Compounds 3c{3,6}, 3c{6,6} were tested on mites in the absence of bees, alone and as a 1:1 blend. Mite paralysis and death were checked every 30 min, up to 4.5 h after initial exposure. Four doses were tested: 0.2, 0.5, 1 and 10 mg.

Varroa [5] = experiment: Example 5 Varroa death and paralysis assay, single compounds and blend; set-up: species or system Varroa destructor; details: in vivo
Procedure: Assays were done in 9 cm glass Petri dishes. A 2.5×2.5 cm piece of Parafilm was stuck to the lid of the dish, in the middle. 120 μL water were put on filter paper in the middle of the plate. The Parafilm received 10 μL of hexane, either pure (controls) or with the compound (treatments). The bottom of the dish received one freshly thawed nurse and one freshly thawed forager, placed at opposite sides. One mite was placed between the nurse and the forager, the lid was closed and groups of dishes were placed in an incubator at 30° C. Observation times were at 3 h, 5 h and 20 h. Mites were scored for whether the mite could move normally, was paralyzed (had difficulty moving) or dead (not moving). Four types of experiment were performed in the dishes: i) dose response assays with a single compound at different doses of compound on the Parafilm (1 ng, 10 ng, 100 ng, 1 μg, 10 μg, 100 μg, 1 mg) an assay with blends of compounds 3c{3,6} and 3c{6,6} (pure or 1:1 blend) at 0.5 mg and […].

honey bee antennae = details: earlier evaluation; cited from earlier work
Varroa [6] = details: earlier evaluation; cited from earlier work

SMILES: C=CCOc1ccccc1OCCC [3a{3,6}, 1-allyloxy-2-propoxybenzene]
- mites falling off bees (Varroa mites [1]): occasionally fell off bees but reattached quickly

SMILES: CCOc1cccc(OCC)c1 [3b{2,2}, 1,3-diethoxybenzene]
- mite paralysis/mortality (Varroa mites [2]): 50%

SMILES: C=CCOc1ccc(OCC)cc1 [3c{2,6}, 1-(allyloxy)-4-ethoxybenzene]
- paralysis and mite death in screen (Varroa destructor mites [3]; 1 mg dose, 3 h): little paralysis

SMILES: CCCOc1ccc(OCCC)cc1 [3c{3,3}, 1,4-dipropoxybenzene]
- acaricidal effect (Varroa mites [1]): clear acaricidal effect
- paralysis and mite death in screen (Varroa destructor mites [3]; 1 mg dose, 3 h): most reliable mite paralysis

SMILES: CCCCOc1ccc(OCCC)cc1 [3c{4,3}, 1-butoxy-4-propoxybenzene]
- acaricidal effect (Varroa mites [1]): somewhat effective
- paralysis and mite death in screen (Varroa destructor mites [3]; 1 mg dose, 3 h): most death

SMILES: C=CCOc1ccc(OCCCC)cc1 [3c{4,6}, 1-(allyloxy)-4-butoxybenzene]
- acaricidal effect (Varroa mites [1]): clear acaricidal effect
- activity relative to compound 3c{3,6} in screen (Varroa destructor mites [3]; 1 mg dose): slightly less active

SMILES: C=CCOc1ccc(OCC=C)cc1 [3c{6,6}, 1,4-bis(allyloxy)benzene]
- acaricidal effect (Varroa mites [1]): clear acaricidal effect
- mites falling off bees (Varroa mites [1]): occasionally fell off bees but reattached quickly
- fold less active than 3c{3,6} with regard to paralysis and death of mites (Varroa destructor mites [3]; from EC50): ca. 4 ×
- EC50 for paralysis and eventual death of mites (Varroa destructor mites [3]; neat compound on the source, vapors only, 3 h): 182 µg
- mite paralysis+death (Varroa destructor mites [4]; 0.2 mg): no activity
- mite paralysis+death (Varroa destructor mites [4]; 0.5 mg): no activity
- mite paralysis or death (Varroa destructor mites [4]; 10 mg): 100%
- acaricidal activity alone (Varroa [5]): acaricidal
- mite paralysis/mortality (Varroa mites [2]): 50%
- doses at which mites were paralyzed or killed (Varroa mites [2]; FIG. 9 / FIG. 10): ≥ 10 µg

SMILES: C=CCOc1ccc(OCCCCC)cc1 [3c{n5,6}, 1-(allyloxy)-4-(pentyloxy)benzene]
- mites falling off bees (Varroa mites [1]): occasionally fell off bees but reattached quickly

SMILES: CCN(CC)C(=O)c1cccc(C)c1 [DEET, N,N-diethyl-meta-toluamide]
- chemosensing and behavior of honey bees (honey bee antennae): not found to affect
- ability of mites to reach a bee (Varroa [6]): reduced
- host preference of Varroa (Varroa [6]): without affecting

SMILES: Cc1ccc(C(C)C)c(OC=O)c1 [thymyl formate]
- acaricidal effect (Varroa mites [1]): somewhat effective
